Test results published in patent US9428519B2, “Acylated derivative of homoharringtonine, preparation method therefor, and application thereof” (HANGZHOU BENSHENG PHARMACEUTICAL CO., LTD., priority 2011, dated 2016).
In brackets after ≈: the same amount, converted by molar mass.

How the values were obtained:
[1] = Body weight and toxicity in tumor-bearing BALB/c-nu nude mice; format: in vivo; conditions: for Weight (g) Final / Weight (g) Initial: 10 days
Description: Animal: BALB/c-nu nude mice, 8 weeks, female, purchased from Shanghai Laboratory Animal Center of Chinese Academy of Sciences, China.
BS-HH-002, wherein BS-HH-002-0.1 indicates a dosage of 0.1 mg/kg each time, BS-HH-002-0.3 indicates a dosage of 0.3 mg/kg each time, BS-HH-002-0.5 indicates a dosage of 0.5 mg/kg each time, and BS-HH-002-1.0 indicates a dosage of 1.0 mg/kg each time.
Under sterile conditions, the above tumor cells in logarithmic growth phase are collected and injected in an amount of 2×10^7/0.2 ml/nude mice (cell viability>95%) into the right subaxillary of the nude mice by subcutaneous injection, thus establishing a BALB/c-nu nude mice model bearing transplanted tumor of gastric cancer. The mice are administered on the third day after the inoculation, wherein the experimental groups are intragastrically administered in an experimentally designed amount, and the negative control group is intragastrically administered with sterile water. Administration takes place at 8:00 for one time a day, at 8:00 and 14:00 for twice a day, and at 8:00, 14:00 and 20:00 with 6-hour intervals for three times day. The administrations are successive for 10 days. The day before administration is Day 0 and the weight and tumor size are determined approximately every 5 days to produce a plot on weight and tumor growth. On Day 27, the mice are dissected and the tumors are taken out and weighed. Based on a tumor inhibition rate of zero for the control group, the tumor inhibition rate (%) after the effect of the medicament is calculated.
The values determined are presented as mean±standard error (M±SD). The experimental data for each group are analyzed by the One-way ANOVA method of SPSS 18.0 Statistical Software, and p<0.05 is deemed as having statistically significant difference.

[2] = test system: U87 MG (malignant glioma cell); test: MTT growth inhibition of human solid tumor cells, 72 h; format: cell-based; conditions: Homo sapiens, U-87 MG
Outline: (§1)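 First, 4000 tumour cells per well are plated in DMEM high glucose containing 10% fetal bovine serum and kept 24 h at 37° C. Next, test derivatives are mixed in at different concentrations for a further 72 h. Finally, MTT measures viable cells against an untreated 100% control.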

[3] = test system: Hela (human cervical cancer cell); test: as above; format: cell-based
Outline: as §1

[4] = test system: MG63 (osteosarcoma); test: as above; format: cell-based
Outline: as §1

[5] = test system: Huh7 (human liver cancer cell); test: as above; format: cell-based; conditions: Homo sapiens, Huh-7
Outline: as §1

[6] = test system: SK-OV-3 (ovarian cancer cell); test: as above; format: cell-based
Outline: as §1

[7] = test system: Hep-2 (laryngeal carcinoma); test: as above; format: cell-based; conditions: Homo sapiens, HEp-2
Outline: as §1

[8] = test system: CaES-17 (esophageal cancer cell); test: as above; format: cell-based; conditions: Homo sapiens, CaEs17
Outline: as §1

[9] = test system: RKO (human colon adenocarcinoma cell); test: as above; format: cell-based
Outline: as §1

[10] = test system: Becap37 (human breast cancer cell); test: as above; format: cell-based; conditions: Homo sapiens
Outline: as §1

[11] = test system: CNE (nasopharyngeal carcinoma cell); test: as above; format: cell-based; conditions: Homo sapiens, MTT
Outline: as §1

[12] = test system: A549 (human lung cancer); test: as above; format: cell-based; conditions: Homo sapiens, A549
Outline: as §1

[13] = test system: MGC 803 (human gastric cancer cell); test: as above; format: cell-based; conditions: Homo sapiens, MGC-803
Outline: as §1

[14] = test system: PC-3 (prostate cancer); test: as above; format: cell-based
Outline: as §1

[15] = test system: PANC-1 (pancreatic cancer); test: as above; format: cell-based
Outline: as §1

[16] = 0.1 mg/kg/time, 1 time/day intragastric
[17] = 0.1 mg/kg/time, 2 times/day intragastric
[18] = 0.1 mg/kg/time, 3 times/day intragastric
[19] = 0.3 mg/kg/time, 1 time/day intragastric
[20] = 0.5 mg/kg/time, 1 time/day intragastric
[21] = 0.5 mg/kg/time, 2 times/day intragastric
[22] = 0.5 mg/kg/time, 3 times/day intragastric
[23] = 1.0 mg/kg/time, 1 time/day intragastric
[24] = 1.0 mg/kg/time, 3 times/day intragastric

For `COC(=O)C[C@](O)(CCCC(C)(C)OC(C)=O)C(=O)O[C@@H]1C(OC)=C[C@]23CCCN2CCc2cc4c(cc2[C@H]13)OCO4` [BS-HH-002, 6-acetylhomoharringtonine], the “Weight (g) Final” value [1, 16] was 27.18 ± 3.62 g, the “Weight (g) Initial” value [1, 16] was 18.88 ± 0.56 g and the “Weight (g) Final” value [1, 17] was 25.63 ± 1.06 g. The “Weight (g) Initial” value [1, 17] was 21.35 ± 0.34 g, the “Weight (g) Final” value [1, 18] was 28.50 ± 2.83 g and the “Weight (g) Initial” value [1, 18] was 24.58 ± 0.39 g. For the same compound, the “Weight (g) Final” value [1, 19] was 24.30 ± 1.38 g, the “Weight (g) Initial” value [1, 19] was 18.98 ± 0.51 g and the “Weight (g) Final” value [1, 20] was 25.78 ± 1.15 g. The “Weight (g) Initial” value [1, 20] was 20.10 ± 0.22 g, the “Weight (g) Final” value [1, 21] was 26.68 ± 1.42 g and the “Weight (g) Initial” value [1, 21] was 22.28 ± 0.43 g. For the same compound, the “Weight (g) Final” value [1, 22] was 26.33 ± 2.76 g, the “Weight (g) Initial” value [1, 22] was 23.50 ± 0.37 g and the “Weight (g) Final” value [1, 23] was 25.95 ± 0.94 g. The “Weight (g) Initial” value [1, 23] was 20.45 ± 0.76 g, the “Weight (g) Final” value [1, 24] was 29.98 ± 1.32 g and the “Weight (g) Initial” value [1, 24] was 26.98 ± 0.75 g. The “toxic and side effect” value ([1]; all dosages 0.1-1.0 mg/kg) was “none of the dosages causes obvious toxic and side effect”, the “animal deaths until dissection” value ([1]; all groups, until Day 27) was “none of the animals has died” and the IC50 [2] was 2 ng/mL (≈ 0.0034 µM). The IC90 [2] was 0.012 µg/mL (≈ 0.0204 µM), the IC50 ([3]; Homo sapiens, HeLa, MTT) was 7.7 ng/mL (≈ 0.0131 µM) and the IC90 ([3]; Homo sapiens, HeLa, MTT) was 16 µg/mL (≈ 27.2 µM). The “anti-Hela effect relative to homoharringtonine” value ([3]; vs HHT) was “more than 2.5 fold”, the IC50 ([4]; Homo sapiens, MG-63, MTT) was 6 ng/mL (≈ 0.0102 µM) and the IC90 ([4]; Homo sapiens, MG-63, MTT) was 0.42 µg/mL (≈ 0.715 µM). For the same compound, the “anti-MG63 effect relative to homoharringtonine” value ([4]; vs HHT) was “substantially superior”, the IC50 [5] was 2.1 ng/mL (≈ 0.00357 µM) and the IC90 [5] was 0.018 µg/mL (≈ 0.0306 µM). The IC50 ([6]; Homo sapiens, SK-OV-3, MTT) was 0.05 µg/mL (≈ 0.0851 µM), the IC90 ([6]; Homo sapiens, SK-OV-3, MTT) was over 16 µg/mL and the “anti-SK-OV-3 effect relative to homoharringtonine” value ([6]; vs HHT) was 2 fold. It also gave an IC50 [7] of 3.7 ng/mL (≈ 0.0063 µM), an IC90 [7] of over 16 µg/mL and an IC50 [8] of 0.02 µg/mL (≈ 0.034 µM). It also gave an IC90 [8] of over 16 µg/mL, an IC50 ([9]; Homo sapiens, MTT) of 2 ng/mL (≈ 0.0034 µM) and an IC90 ([9]; Homo sapiens, MTT) of 0.01 µg/mL (≈ 0.017 µM). The “anti-RKO effect relative to homoharringtonine” value ([9]; vs HHT) was “substantially superior”, the IC50 [10] was 5 ng/mL (≈ 0.00851 µM) and the IC90 [10] was 16 µg/mL (≈ 27.2 µM). For the same compound, the IC50 [11] was 0.024 µg/mL (≈ 0.0408 µM), the IC90 [11] was over 16 µg/mL and the IC50 [12] was 0.013 µg/mL (≈ 0.0221 µM). The IC90 [12] was over 16 µg/mL, the IC50 [13] was 8 ng/mL (≈ 0.0136 µM) and the IC90 [13] was 0.056 µg/mL (≈ 0.0953 µM). For the same compound, the IC50 ([14]; Homo sapiens, MTT) was 0.013 µg/mL (≈ 0.0221 µM), the IC90 ([14]; Homo sapiens, MTT) was over 16 µg/mL and the “anti-PC-3 effect relative to homoharringtonine” value ([14]; vs HHT) was “more than 6 fold”. For the same compound, the IC50 ([15]; Homo sapiens, PANC-1, MTT) was 0.012 µg/mL (≈ 0.0204 µM), the IC90 ([15]; Homo sapiens, PANC-1, MTT) was over 16 µg/mL and the “anti-PANC-1 effect relative to homoharringtonine” value ([15]; vs HHT) was “more than 3 fold”.
